Laboratory results published in US10316035B2, “Triazolopyridine inhibitors of myeloperoxidase” (BRISTOL-MYERS SQUIBB COMPANY, priority 2015, dated 2019).

Biological target: T1, myeloperoxidase (MPO) (Homo sapiens, UniProt P05164)
T1 sequence (P05164 49-745): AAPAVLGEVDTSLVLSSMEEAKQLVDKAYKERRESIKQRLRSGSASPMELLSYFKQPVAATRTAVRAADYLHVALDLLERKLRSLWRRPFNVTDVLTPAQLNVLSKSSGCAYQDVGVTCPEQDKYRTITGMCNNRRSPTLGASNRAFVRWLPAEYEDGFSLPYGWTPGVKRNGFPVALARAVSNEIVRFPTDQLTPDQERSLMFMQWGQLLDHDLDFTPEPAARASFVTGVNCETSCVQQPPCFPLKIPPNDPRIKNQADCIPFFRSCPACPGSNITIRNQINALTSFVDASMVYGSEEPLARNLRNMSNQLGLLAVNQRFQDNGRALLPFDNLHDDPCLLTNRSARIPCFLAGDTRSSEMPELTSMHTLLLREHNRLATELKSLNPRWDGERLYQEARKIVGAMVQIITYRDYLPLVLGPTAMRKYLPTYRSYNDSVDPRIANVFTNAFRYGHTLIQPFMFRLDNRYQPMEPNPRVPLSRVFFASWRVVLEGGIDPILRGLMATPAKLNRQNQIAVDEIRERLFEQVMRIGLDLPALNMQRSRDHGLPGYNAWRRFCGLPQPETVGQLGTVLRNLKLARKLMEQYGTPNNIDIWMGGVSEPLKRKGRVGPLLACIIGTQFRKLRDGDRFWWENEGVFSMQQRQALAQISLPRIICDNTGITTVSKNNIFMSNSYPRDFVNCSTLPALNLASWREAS
Experiment: MPO peroxidation assay (Amplex Red assay)
Type: biochemical
Settings: MPO peroxidation, potency range class; read-out: Amplex Red IC50
Procedure, shortened: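 Peroxidase turnover of Amplex Red to fluorescent resorufin (Ex 535/Em 590 nm) was followed for 15 min in 100 mM KPi, pH 7.4, after 10 min room-temperature preincubation of compound with 200 pM enzyme plus 40 nM H2O2. The substrate mix contained 200 μM Amplex Red and 10 mM H2O2. IC50s came from linear-phase rates (180–540 s) fitted with a Hill equation.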

Row | Compound | IC50 [nM]
1 | CCN(C)C(=O)c1ccc(-c2ccc(COc3cc(N)nc4[nH]nnc34)cc2)cc1F [Example 107, 4′-((5-Amino-3H-[1,2,3]triazolo[4,5-b]pyridin-7-yloxy)methyl)-N-ethyl-3-fluoro-N-methylbiphenyl-4-carboxamide] | 101 to 999
2 | COc1ccc(-c2ccc(COc3cc(N)nc4[nH]nnc34)cc2)cc1F [Example 108, 7-((3′-Fluoro-4′-methoxybiphenyl-4-yl)methoxy)-3H-[1,2,3]triazolo[4,5-b]pyridin-5-amine] | 101 to 999
3 | Nc1cc(OCc2ccc(-c3ccccc3Cl)cc2)c2nn[nH]c2n1 [Example 109, 7-((2′-Chlorobiphenyl-4-yl)methoxy)-3H-[1,2,3]triazolo[4,5-b]pyridin-5-amine] | 101 to 999
4 | N#Cc1cccc(-c2ccc(COc3cc(N)nc4[nH]nnc34)cc2)c1 [Example 110, 4′-((5-Amino-3H-[1,2,3]triazolo[4,5-b]pyridin-7-yloxy)methyl)biphenyl-3-carbonitrile] | 1000 to 10000
5 | Nc1cc(OCc2ccc(-c3cccc(Cl)c3)cc2)c2nn[nH]c2n1 [Example 111, 7-((3′-Chlorobiphenyl-4-yl)methoxy)-3H-[1,2,3]triazolo[4,5-b]pyridin-5-amine] | 1000 to 10000
6 | COc1cccc(-c2ccc(COc3cc(N)nc4[nH]nnc34)cc2)c1 [Example 112, 7-((3′-Methoxybiphenyl-4-yl)methoxy)-3H-[1,2,3]triazolo[4,5-b]pyridin-5-amine] | 101 to 999
7 | COc1cccc(-c2cccc(COc3cc(N)nc4[nH]nnc34)c2)c1 [Example 113, 7-((3′-Methoxybiphenyl-3-yl)methoxy)-3H-[1,2,3]triazolo[4,5-b]pyridin-5-amine] | 1 to 100
8 | Nc1cc(OCc2ccc(-c3ccccc3F)cc2)c2nn[nH]c2n1 [Example 114, 7-((2′-Fluorobiphenyl-4-yl)methoxy)-3H-[1,2,3]triazolo[4,5-b]pyridin-5-amine] | 101 to 999
9 | COc1c(F)cccc1-c1cccc(COc2cc(N)nc3[nH]nnc23)c1 [Example 115, 7-((3′-Fluoro-2′-methoxybiphenyl-3-yl)methoxy)-3H-[1,2,3]triazolo[4,5-b]pyridin-5-amine] | 1 to 100
10 | CCN(C)C(=O)c1ccc(-c2cccc(COc3cc(N)nc4[nH]nnc34)c2)cc1F [Example 116, 3′-((5-Amino-3H-[1,2,3]triazolo[4,5-b]pyridin-7-yloxy)methyl)-N-ethyl-3-fluoro-N-methylbiphenyl-4-carboxamide] | 101 to 999
11 | COc1c(F)cc(F)cc1-c1ccc(COc2cc(N)nc3[nH]nnc23)cc1 [Example 117, 7-((3′,5′-Difluoro-2′-methoxybiphenyl-4-yl)methoxy)-3H-[1,2,3]triazolo[4,5-b]pyridin-5-amine] | 101 to 999
12 | COc1cccc(Cl)c1-c1ccc(COc2cc(N)nc3[nH]nnc23)cc1 [Example 118, 7-((2′-Chloro-6′-methoxybiphenyl-4-yl)methoxy)-3H-[1,2,3]triazolo[4,5-b]pyridin-5-amine] | 1 to 100
13 | Nc1cc(OCc2ccc(-c3ccc(OC(F)(F)F)cc3)cc2)c2nn[nH]c2n1 [Example 119, 7-((4′-(Trifluoromethoxy)biphenyl-4-yl)methoxy)-3H-[1,2,3]triazolo[4,5-b]pyridin-5-amine] | 101 to 999
14 | Nc1cc(OCc2ccc(-c3cccc(C(F)(F)F)c3)cc2)c2nn[nH]c2n1 [Example 120, 7-((3′-(Trifluoromethyl)biphenyl-4-yl)methoxy)-3H-[1,2,3]triazolo[4,5-b]pyridin-5-amine] | 101 to 999
15 | Nc1cc(OCc2cccc(-c3cncc(F)c3)c2)c2nn[nH]c2n1 [Example 121, 7-(3-(5-Fluoropyridin-3-yl)benzyloxy)-3H-[1,2,3]triazolo[4,5-b]pyridin-5-amine] | 1 to 100
16 | COc1ccc(-c2ccc(COc3cc(N)nc4[nH]nnc34)cc2)cc1 [Example 122, 7-((4′-Methoxybiphenyl-4-yl)methoxy)-3H-[1,2,3]triazolo[4,5-b]pyridin-5-amine] | 1 to 100
17 | COc1ccccc1-c1ccc(COc2cc(N)nc3[nH]nnc23)cc1 [Example 123, 7-((2′-Methoxybiphenyl-4-yl)methoxy)-3H-[1,2,3]triazolo[4,5-b]pyridin-5-amine] | 1 to 100
18 | COc1cccc(Cl)c1-c1cccc(COc2cc(N)nc3[nH]nnc23)c1 [Example 124, 7-((2′-Chloro-6′-methoxybiphenyl-3-yl)methoxy)-3H-[1,2,3]triazolo[4,5-b]pyridin-5-amine] | 101 to 999
19 | COc1ccccc1COc1cc(N)nc2[nH]nnc12 [Example 125] | 1 to 100

Row | Compound | IC50 [nM]
20 | Nc1cc(OC(c2ccccc2)C(F)(F)F)c2nn[nH]c2n1 (centres unmarked) [Example 126, 7-(2,2,2-Trifluoro-1-phenylethoxy)-3H-[1,2,3]triazolo[4,5-b]pyridin-5-amine] | 101 to 999
21 | COc1cccc(COc2cc(N)nc3[nH]nnc23)c1 [Example 127, 7-((3-Methoxybenzyl)oxy)-3H-[1,2,3]triazolo[4,5-b]pyridin-5-amine] | 101 to 999
22 | CCOc1ccccc1COc1cc(N)nc2[nH]nnc12 [Example 128, 7-((2-Ethoxybenzyl)oxy)-3H-[1,2,3]triazolo[4,5-b]pyridin-5-amine] | 1 to 100
23 | Nc1cc(OCc2cccc(F)c2F)c2nn[nH]c2n1 [Example 129, 7-((2,3-Difluorobenzyl)oxy)-3H-[1,2,3]triazolo[4,5-b]pyridin-5-amine] | 1 to 100
24 | Nc1cc(OCc2ccc(F)cc2F)c2nn[nH]c2n1 [Example 130, 7-((2,4-Difluorobenzyl)oxy)-3H-[1,2,3]triazolo[4,5-b]pyridin-5-amine] | 1 to 100
25 | CS(=O)(=O)c1cc(Cl)ccc1COc1cc(N)nc2[nH]nnc12 [Example 131, 7-(4-Chloro-2-(methylsulfonyl)benzyloxy)-3H-[1,2,3]triazolo[4,5-b]pyridin-5-amine] | 1 to 100
26 | Nc1cc(OCC2CCCCC2)c2nn[nH]c2n1 [Example 132, 7-(Cyclohexylmethoxy)-3H-[1,2,3]triazolo[4,5-b]pyridin-5-amine] | 101 to 999
27 | CC(Oc1cc(N)nc2[nH]nnc12)c1ccccc1F (centres unmarked) [Example 140, 7-(1-(2-Fluorophenyl)ethoxy)-3H-[1,2,3]triazolo[4,5-b]pyridin-5-amine] | 101 to 999
28 | CC(Oc1cc(N)nc2[nH]nnc12)c1ccc(OC(F)(F)F)cc1 (centres unmarked) [Example 142, 7-(1-(4-(Trifluoromethoxy)phenyl)ethoxy)-3H-[1,2,3]triazolo[4,5-b]pyridin-5-amine] | 1000 to 10000
29 | CC(Oc1cc(N)nc2[nH]nnc12)c1cccc(OC(F)(F)F)c1 (centres unmarked) [Example 143, 7-(1-(3-(Trifluoromethoxy)phenyl)ethoxy)-3H-[1,2,3]triazolo[4,5-b]pyridin-5-amine] | 101 to 999
30 | CC(=O)Nc1cccc(C(C)Oc2cc(N)nc3[nH]nnc23)c1 (centres unmarked) [Example 144, N-(3-(1-(5-Amino-3H-[1,2,3]triazolo[4,5-b]pyridin-7-yloxy)ethyl)phenyl)acetamide] | 101 to 999
31 | CCC(Oc1cc(N)nc2[nH]nnc12)c1ccc(Cl)c(Cl)c1 (centres unmarked) [Example 145, 7-(1-(3,4-Dichlorophenyl)propoxy)-3H-[1,2,3]triazolo[4,5-b]pyridin-5-amine] | 101 to 999
32 | Nc1cc(OCc2ccc3ccccc3c2)c2nn[nH]c2n1 [Example 147, 7-(Naphthalen-2-ylmethoxy)-3H-[1,2,3]triazolo[4,5-b]pyridin-5-amine] | 101 to 999
33 | Nc1cc(OCc2cccc(Br)c2)c2nn[nH]c2n1 [Example 148, 7-(3-Bromobenzyloxy)-3H-[1,2,3]triazolo[4,5-b]pyridin-5-amine] | 1 to 100
34 | Nc1cc(OCc2cc(C(=O)N3CCCC3)ccc2F)c2nn[nH]c2n1 [Example 152, (3-((5-amino-3H-[1,2,3]triazolo[4,5-b]pyridin-7-yloxy)methyl)-4-fluorophenyl)(pyrrolidin-1-yl)methanone] | 101 to 999
35 | Nc1cc(OCc2cc(C(=O)N3CCC(O)CC3)ccc2F)c2nn[nH]c2n1 [Example 153, (3-((5-amino-3H-[1,2,3]triazolo[4,5-b]pyridin-7-yloxy)methyl)-4-fluorophenyl)(4-hydroxypiperidin-1-yl)methanone] | 101 to 999
36 | CN(CCO)C(=O)c1ccc(F)c(COc2cc(N)nc3[nH]nnc23)c1 [Example 154, 3-((5-amino-3H-[1,2,3]triazolo[4,5-b]pyridin-7-yloxy)methyl)-4-fluoro-N-(2-hydroxyethyl)-N-methylbenzamide] | 101 to 999
37 | Nc1cc(OCc2cc(C(=O)Nc3nnc(C(F)(F)F)s3)ccc2F)c2nn[nH]c2n1 [Example 155, 3-((5-amino-3H-[1,2,3]triazolo[4,5-b]pyridin-7-yloxy)methyl)-4-fluoro-N-(5-(trifluoromethyl)-1,3,4-thiadiazol-2-yl)benzamide] | 101 to 999
38 | Nc1cc(OCc2cc(C(=O)NCCCN3CCCC3=O)ccc2F)c2nn[nH]c2n1 [Example 156, 3-((5-amino-3H-[1,2,3]triazolo[4,5-b]pyridin-7-yloxy)methyl)-4-fluoro-N-(3-(2-oxopyrrolidin-1-yl)propyl) benzamide] | 101 to 999
